Experimental data taken from patent US10214507B2, “Carbazole-containing amides, carbamates, and ureas as cryptochrome modulators” (Reset Therapeutics, Inc., priority 2014, dated 2019).

These molecules were tested on stable U20S reporter cells harboring Per2-dLuc (assay: Per2 assay for evaluating the potency of test compounds (circadian luciferase reporter)). Conditions: amplitude of Per2-dLuc luminescence vs log concentration.
Assay type: cell-based
Procedure: Compounds were screened by using a high-throughput circadian assay system as previously described in Zhang, E. E. et al. Cell, 2009, 139, 199-210. In brief, stable U20S reporter cells harboring Per2-dLuc were plated at a density of 30,000 cells/well in Corning 96-well, solid white, flat bottom, TC-treated microplates (Corning®), and incubated for 48 hours at 37° C. in the presence of 5% CO2 in a medium of Dulbecco's Modified Eagle Medium (DMEM) supplemented with 10% fetal bovine serum (FBS) and penicillin (100 units/mL)-streptomycin (100 μg/mL). […] DMSO stocks are then serially diluted in DMSO, typically diluting 3-fold for each dilution step. Following the 48 h period, cell culture medium is removed from plated cells and cells are synchronized with 200 μL/well of complete cell culture medium (described above), supplemented with 5 μM forskolin (Tocris®) and 1 mM beetle luciferin (Promega®). Immediately following synchronization, 1 μL of compound dilution is added to each well. Plates are sealed, shaken briefly, and gene expression was monitored by measuring luminescence (Tecan® Infinite M200 or Tecan® Infinite M200 Pro) continuously for a minimum of 3 days at 35° C. Raw luminescence data (counts) are first analyzed using Multicycle™ software (Actimetrics, Inc.) to determine the amplitude (amp), period, and phase (phz) for each compound concentration. The period length for control wells (i.e. no compound, DMSO only) should be 26-30 h. Amp data are then plotted against the logarithm compound concentration (M) and analyzed by nonlinear regression analysis to determine the EC50.

Q: `C[C@@H]1CCC(=O)N1C[C@H](O)Cn1c2ccccc2c2ccccc21` [Compound 111, (R)-1-((R)-3-(9H-carbazol-9-yl)-2-hydroxypropyl)-5-methylpyrrolidin-2-one] was tested. Which EC50 did it give?
A: 95 nM

Q: Which EC50 does the source give for `CC(C)N1CCN(CC(O)Cn2c3ccc(F)cc3c3cc(F)ccc32)C1=O` (centres unmarked) [Compound 90, 1-(3-(3,6-difluoro-9H-carbazol-9-yl)-2-hydroxypropyl)-3-isopropylimidazolidin-2-one] here?
A: 605 nM

Q: Which EC50 does the source give for `O=C1[C@H]2CC[C@H](C2)N1C[C@H](O)Cn1c2ccccc2c2ccccc21` [Compound 107, (1R,4S)-2-((R)-3-(9H-carbazol-9-yl)-2-hydroxypropyl)-2-azabicyclo[2.2.1]heptan-3-one] here?
A: 89 nM

Q: For `O=C1CCCCN1CC(O)Cn1c2ccccc2c2ccccc21` (centres unmarked) [Compound 1, 1-(3-(9H-carbazol-9-yl)-2-hydroxypropyl)piperidin-2-one], which EC50 is on record?
A: 171 nM

Q: How did the EC50 turn out when `CC1CCCC(=O)N1CC(C)(O)Cn1c2ccc(F)cc2c2cc(F)ccc21` (centres unmarked) [Compound 40, 1-(3-(3,6-difluoro-9H-carbazol-9-yl)-2-hydroxy-2-methylpropyl)-6-methylpiperidin-2-one] was run?
A: 484 nM

Q: With `CC(C)C1CCCN(CC(C)(O)Cn2c3ccc(F)cc3c3cc(F)ccc32)C1=O` (centres unmarked) [Compound 26, 1-(3-(3,6-difluoro-9H-carbazol-9-yl)-2-hydroxy-2-methylpropyl)-3-isopropylpiperidin-2-one] as the molecule, how does the EC50 read?
A: 1050 nM

Q: `C[C@@](O)(CN1CC[C@@H](F)C1=O)Cn1c2ccccc2c2ccccc21` [Compound 123, (R)-1-((S)-3-(9H-carbazol-9-yl)-2-hydroxy-2-methylpropyl)-3-fluoropyrrolidin-2-one] was tested. Which EC50 did it give?
A: 311 nM

Q: `CC1(C)CCN(CC(O)Cn2c3ccc(F)cc3c3cc(F)ccc32)C1=O` (centres unmarked) [Compound 15, 1-(3-(3,6-difluoro-9H-carbazol-9-yl)-2-hydroxypropyl)-3,3-dimethylpyrrolidin-2-one] was tested. Which EC50 did it give?
A: 164 nM

Q: With `O=C1C(C2CCCCC2)CCCN1CC(O)Cn1c2ccc(F)cc2c2cc(F)ccc21` (centres unmarked) [Compound 20, 3-cyclohexyl-1-(3-(3,6-difluoro-9H-carbazol-9-yl)-2-hydroxypropyl)piperidin-2-one] as the molecule, how does the EC50 read?
A: 379 nM

Q: How did the EC50 turn out when `CN1CCCN(CC(O)Cn2c3ccc(F)cc3c3cc(F)ccc32)C1=O` (centres unmarked) [Compound 6, 1-(3-(3,6-difluoro-9H-carbazol-9-yl)-2-hydroxypropyl)-3-methyltetrahydropyrimidin-2(1H)-one] was run?
A: 719 nM

Q: With `O=C1N(CC(O)Cn2c3ccccc3c3ccccc32)CCCN1C1CCC1` (centres unmarked) [Compound 100, 1-(3-(9H-carbazol-9-yl)-2-hydroxypropyl)-3-cyclobutyltetrahydropyrimidin-2(1H)-one] as the molecule, how does the EC50 read?
A: 721 nM

Q: How did the EC50 turn out when `CC1CCN(CC(C)(O)Cn2c3ccc(F)cc3c3cc(F)ccc32)C1=O` (centres unmarked) [Compound 30, 1-(3-(3,6-difluoro-9H-carbazol-9-yl)-2-hydroxy-2-methylpropyl)-3-methylpyrrolidin-2-one] was run?
A: 895 nM

Q: `O=C1N(CC(O)Cn2c3ccccc3c3ccccc32)CCCN1C1CC1` (centres unmarked) [Compound 99, 1-(3-(9H-carbazol-9-yl)-2-hydroxypropyl)-3-cyclopropyltetrahydropyrimidin-2(1H)-one] was tested. Which EC50 did it give?
A: 555 nM

Q: For `CC1CCC(=O)N(CC(O)Cn2c3ccc(F)cc3c3cc(F)ccc32)C1` (centres unmarked) [Compound 37, 1-(3-(3,6-difluoro-9H-carbazol-9-yl)-2-hydroxypropyl)-5-methylpiperidin-2-one], which EC50 is on record?
A: 224 nM

Q: Which EC50 does the source give for `O=C1N(CC(O)Cn2c3ccc(F)cc3c3cc(F)ccc32)CCCN1C1CCCCC1` (centres unmarked) [Compound 74, 1-cyclohexyl-3-(3-(3,6-difluoro-9H-carbazol-9-yl)-2-hydroxypropyl)tetrahydropyrimidin-2(1H)-one] here?
A: 284 nM

Q: With `CC(O)(CN1CCCC1=O)Cn1c2ccc(F)cc2c2cc(F)ccc21` (centres unmarked) [Compound 8, 1-(3-(3,6-difluoro-9H-carbazol-9-yl)-2-hydroxy-2-methylpropyl)pyrrolidin-2-one] as the molecule, how does the EC50 read?
A: 527 nM

Q: With `C[C@H]1CCN(C[C@H](O)Cn2c3ccc(F)cc3c3cc(F)ccc32)C1=O` [Compound 115, (S)-1-((R)-3-(3,6-difluoro-9H-carbazol-9-yl)-2-hydroxypropyl)-3-methylpyrrolidin-2-one] as the molecule, how does the EC50 read?
A: 500 nM

Q: With `CCN1CCCN(CC(O)Cn2c3ccccc3c3ccccc32)C1=O` (centres unmarked) [Compound 95, 1-(3-(9H-carbazol-9-yl)-2-hydroxypropyl)-3-ethyltetrahydropyrimidin-2(1H)-one] as the molecule, how does the EC50 read?
A: 568 nM

Q: For `O=C1N(CC(O)Cn2c3ccc(F)cc3c3cc(F)ccc32)CCN1C1CC1` (centres unmarked) [Compound 92, 1-cyclopropyl-3-(3-(3,6-difluoro-9H-carbazol-9-yl)-2-hydroxypropyl)imidazolidin-2-one], which EC50 is on record?
A: 527 nM

Q: `O=C1N(CC(O)Cn2c3ccc(F)cc3c3cc(F)ccc32)CCCN1c1ccccc1` (centres unmarked) [Compound 75, 1-(3-(3,6-difluoro-9H-carbazol-9-yl)-2-hydroxypropyl)-3-phenyltetrahydropyrimidin-2(1H)-one] was tested. Which EC50 did it give?
A: 171 nM

Q: With `O=C1[C@H]2CC[C@H](C2)N1C[C@H](O)Cn1c2ccc(F)cc2c2cc(F)ccc21` [Compound 105, (1R,4S)-2-((R)-3-(3,6-difluoro-9H-carbazol-9-yl)-2-hydroxypropyl)-2-azabicyclo[2.2.1]heptan-3-one] as the molecule, how does the EC50 read?
A: 54 nM

Q: `CC(O)(CN1CCCC(F)C1=O)Cn1c2ccc(F)cc2c2cc(F)ccc21` (centres unmarked) [Compound 12, 1-(3-(3,6-difluoro-9H-carbazol-9-yl)-2-hydroxy-2-methylpropyl)-3-fluoropiperidin-2-one] was tested. Which EC50 did it give?
A: 909 nM

Q: How did the EC50 turn out when `CC1CCC(=O)N1CC(C)(O)Cn1c2ccc(F)cc2c2cc(F)ccc21` (centres unmarked) [Compound 35, 1-(3-(3,6-difluoro-9H-carbazol-9-yl)-2-hydroxy-2-methylpropyl)-5-methylpyrrolidin-2-one] was run?
A: 678 nM

Q: For `C[C@](O)(CN1CC[C@H](F)C1=O)Cn1c2ccccc2c2ccccc21` [Compound 128, (S)-1-((R)-3-(9H-carbazol-9-yl)-2-hydroxy-2-methylpropyl)-3-fluoropyrrolidin-2-one], which EC50 is on record?
A: 172 nM

Q: Which EC50 does the source give for `O=C1C(C2CCC2)CCN1CC(O)Cn1c2ccc(F)cc2c2cc(F)ccc21` (centres unmarked) [Compound 50, 3-cyclobutyl-1-(3-(3,6-difluoro-9H-carbazol-9-yl)-2-hydroxypropyl)pyrrolidin-2-one] here?
A: 204 nM

Q: How did the EC50 turn out when `O=C1Nc2ccccc2CN1CC(O)Cn1c2ccc(F)cc2c2cc(F)ccc21` (centres unmarked) [Compound 103, 3-(3-(3,6-difluoro-9H-carbazol-9-yl)-2-hydroxypropyl)-3,4-dihydroquinazolin-2(1H)-one] was run?
A: 940 nM

Q: For `C[C@@H]1CCN(C[C@H](O)Cn2c3ccc(F)cc3c3cc(F)ccc32)C1=O` [Compound 116, (R)-1-((R)-3-(3,6-difluoro-9H-carbazol-9-yl)-2-hydroxypropyl)-3-methylpyrrolidin-2-one], which EC50 is on record?
A: 311 nM

Q: `CC(O)(CN1CCCC1=O)Cn1c2ccccc2c2ccccc21` (centres unmarked) [Compound 67, 1-(3-(9H-carbazol-9-yl)-2-hydroxy-2-methylpropyl)pyrrolidin-2-one] was tested. Which EC50 did it give?
A: 225 nM

Q: With `C[C@@H]1CN(C[C@H](O)Cn2c3ccc(F)cc3c3cc(F)ccc32)C(=O)N1` [Compound 136, (R)-1-((R)-3-(3,6-difluoro-9H-carbazol-9-yl)-2-hydroxypropyl)-4-methylimidazolidin-2-one] as the molecule, how does the EC50 read?
A: 826 nM

Q: Which EC50 does the source give for `O=C1CC(C2CC2)CN1CC(O)Cn1c2ccc(F)cc2c2cc(F)ccc21` (centres unmarked) [Compound 42, 4-cyclopropyl-1-(3-(3,6-difluoro-9H-carbazol-9-yl)-2-hydroxypropyl)pyrrolidin-2-one] here?
A: 420 nM

Q: How did the EC50 turn out when `O=C1C(F)CCCN1CC(O)Cn1c2ccc(F)cc2c2cc(F)ccc21` (centres unmarked) [Compound 11, 1-(3-(3,6-difluoro-9H-carbazol-9-yl)-2-hydroxypropyl)-3-fluoropiperidin-2-one] was run?
A: 120 nM

Q: How did the EC50 turn out when `CC1(C)CCCN(CC(O)Cn2c3ccc(F)cc3c3cc(F)ccc32)C1=O` (centres unmarked) [Compound 16, 1-(3-(3,6-difluoro-9H-carbazol-9-yl)-2-hydroxypropyl)-3,3-dimethylpiperidin-2-one] was run?
A: 463 nM

Q: For `C[C@H]1CCC(=O)N1C[C@H](O)Cn1c2ccccc2c2ccccc21` [Compound 112, (S)-1-((R)-3-(9H-carbazol-9-yl)-2-hydroxypropyl)-5-methylpyrrolidin-2-one], which EC50 is on record?
A: 470 nM

Q: Which EC50 does the source give for `CC(O)(CN1CCCCC1=O)Cn1c2ccc(F)cc2c2cc(F)ccc21` (centres unmarked) [Compound 5, 1-(3-(3,6-difluoro-9H-carbazol-9-yl)-2-hydroxy-2-methylpropyl)piperidin-2-one] here?
A: 536 nM

Q: How did the EC50 turn out when `CC1CCC(=O)N(CC(O)Cn2c3ccccc3c3ccccc32)C1` (centres unmarked) [Compound 62, 1-(3-(9H-carbazol-9-yl)-2-hydroxypropyl)-5-methylpiperidin-2-one] was run?
A: 370 nM

Q: How did the EC50 turn out when `O=C1CCCN1CC(O)Cn1c2ccccc2c2ccccc21` (centres unmarked) [Compound 68, 1-(3-(9H-carbazol-9-yl)-2-hydroxypropyl)pyrrolidin-2-one] was run?
A: 288 nM

Q: `O=C1NCCN1CC(O)Cn1c2ccccc2c2ccccc21` (centres unmarked) [Compound 84, 1-(3-(9H-carbazol-9-yl)-2-hydroxypropyl)imidazolidin-2-one] was tested. Which EC50 did it give?
A: 325 nM

Q: `CC1CCCC(=O)N1CC(O)Cn1c2ccc(F)cc2c2cc(F)ccc21` (centres unmarked) [Compound 39, 1-(3-(3,6-difluoro-9H-carbazol-9-yl)-2-hydroxypropyl)-6-methylpiperidin-2-one] was tested. Which EC50 did it give?
A: 342 nM
